Counter-ions that a name gives are not always drawn. Like-named read-outs stand apart in the source and are kept apart here.
Columns and labels:
hPAD4 = hPAD4 (Homo sapiens, UniProt Q9UM07); test: hPAD4 RFMS (RapidFire mass spectrometry) PAD4 inhibition assay; assay type: biochemical; conditions: hPAD4 enzyme, RFMS readout;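 on hPAD4 RFMS pIC50: grade E means pIC50 at most 4 and F means pIC50 4.0 to 5.0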
Description: (§1) Compounds of the present invention were assayed as inhibitors of PAD4 using the assay protocol described below.
(§2) Compound stock solutions were stored at RT. […] Final assay conditions were as follows:
(§3) Total incubation time: 65 mins at 37° C.
(§4) Stop solution: 40 μl 5% TCA in ACN
(§5) The compound numbers correspond to the compound numbers in Table 1. […] The term pIC50=−log(IC50). […] “NA” stands for “not assayed.”

mPAD4 = mPAD4 (Mus musculus, UniProt Q9Z183); test: mPAD4 RFMS PAD4 inhibition assay; assay type: biochemical; conditions: mPAD4, RFMS readout;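 on mPAD4 RFMS pIC50: grade E means pIC50 at most 4 and F means pIC50 4.0 to 5.0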
Description: as §1, §2, §3, §4, §5

[1] = pIC50=−log(IC50), read-out: hPAD4 RFMS pIC50 (converted)
[2] = pIC50=−log(IC50), read-out: mPAD4 RFMS pIC50 (converted)

hPAD4, sequence (Q9UM07 whole entry): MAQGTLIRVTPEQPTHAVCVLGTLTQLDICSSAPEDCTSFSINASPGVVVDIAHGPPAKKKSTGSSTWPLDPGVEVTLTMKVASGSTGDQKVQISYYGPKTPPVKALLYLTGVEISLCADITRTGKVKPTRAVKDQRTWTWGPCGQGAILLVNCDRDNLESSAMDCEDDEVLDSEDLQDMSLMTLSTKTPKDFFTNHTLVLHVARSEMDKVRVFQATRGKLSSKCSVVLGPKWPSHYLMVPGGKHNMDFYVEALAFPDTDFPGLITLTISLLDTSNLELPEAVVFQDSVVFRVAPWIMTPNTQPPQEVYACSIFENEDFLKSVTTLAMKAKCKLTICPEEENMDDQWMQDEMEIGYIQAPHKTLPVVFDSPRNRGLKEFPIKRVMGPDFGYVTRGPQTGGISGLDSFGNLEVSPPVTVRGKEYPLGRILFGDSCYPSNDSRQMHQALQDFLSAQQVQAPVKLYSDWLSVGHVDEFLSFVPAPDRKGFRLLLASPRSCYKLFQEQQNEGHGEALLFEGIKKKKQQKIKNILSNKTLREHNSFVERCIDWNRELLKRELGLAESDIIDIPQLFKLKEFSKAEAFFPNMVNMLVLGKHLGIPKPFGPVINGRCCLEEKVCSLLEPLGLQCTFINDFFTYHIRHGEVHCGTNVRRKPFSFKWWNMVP
mPAD4, sequence (Q9Z183 whole entry): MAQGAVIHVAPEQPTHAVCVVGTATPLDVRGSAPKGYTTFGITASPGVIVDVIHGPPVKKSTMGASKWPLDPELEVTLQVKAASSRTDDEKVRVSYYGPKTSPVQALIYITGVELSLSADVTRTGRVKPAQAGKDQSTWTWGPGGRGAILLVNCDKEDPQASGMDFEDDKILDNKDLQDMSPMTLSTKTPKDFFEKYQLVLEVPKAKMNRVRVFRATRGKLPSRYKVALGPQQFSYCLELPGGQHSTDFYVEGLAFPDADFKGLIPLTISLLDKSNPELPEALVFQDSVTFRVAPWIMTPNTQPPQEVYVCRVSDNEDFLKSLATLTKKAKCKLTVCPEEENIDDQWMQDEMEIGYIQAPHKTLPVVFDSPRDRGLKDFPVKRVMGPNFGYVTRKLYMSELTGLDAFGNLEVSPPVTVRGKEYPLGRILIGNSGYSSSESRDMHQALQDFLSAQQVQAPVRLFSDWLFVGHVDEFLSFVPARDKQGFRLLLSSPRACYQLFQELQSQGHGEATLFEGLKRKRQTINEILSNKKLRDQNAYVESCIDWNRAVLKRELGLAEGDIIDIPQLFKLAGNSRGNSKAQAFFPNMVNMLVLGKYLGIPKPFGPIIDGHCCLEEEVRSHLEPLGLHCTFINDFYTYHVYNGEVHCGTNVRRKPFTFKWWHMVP

IC50 (hPAD4; [1]) [nM] | IC50 (hPAD4; read-out: hPAD4 RFMS IC50) [nM] | IC50 (mPAD4; [2]) [nM] | IC50 (mPAD4; read-out: mPAD4 RFMS IC50) [nM] | hPAD4 RFMS pIC50 (hPAD4; pIC50=−log(IC50)) | mPAD4 RFMS pIC50 (mPAD4; pIC50=−log(IC50)) | Compound
1000 to 10000 | 5000 to 10000 | 10000 to 100000 | > 10000 | – | – | Cn1c(-c2cc3cncnc3n2CC2CC2)nc2cc(C(=O)N3CCC4CCNC4C3)ccc21 (centres unmarked) [Compound I-9, 2-[7-(Cyclopropylmethyl)-7H-pyrrolo[2,3-d]pyrimidin-6-yl]-1-methyl-5-{octahydro-1H-pyrrolo[2,3-c]pyridine-6-carbonyl}-1H-1,3-benzodiazole]
1000 to 10000 | 1000 to 5000 | < 1000 | < 1000 | – | – | CCn1c(-c2nc3cc(C(=O)N4CCC[C@@H](N)C4)cc(OC)c3n2CC2CC(F)(F)C2)cc2cccnc21 [Compound I-180]
< 1000 | < 1000 | 1000 to 10000 | 1000 to 5000 | – | – | COc1cc(C(=O)N2C[C@H]3CC[C@@H]2[C@@H]3N)cc2nc(-c3cc4cccnc4n3CC3CC3)n(CCS(C)(=O)=O)c12 [Compound I-214, (1R,4R,7R)-2-{2-[1-(cyclopropylmethyl)-1H-pyrrolo[2,3-b]pyridin-2-yl]-1-(2-methanesulfonylethyl)-7-methoxy-1H-1,3-benzodiazole-5-carbonyl}-2-azabicyclo[2.2.1]heptan-7-amine]
10000 to 100000 | > 10000 | 1000 to 10000 | 5000 to 10000 | – | – | COc1cc(C(=O)N2C[C@H](N)CC[C@H]2C)cc2nc(-c3cc4cccnc4n3CC3CC3)n(C)c12 [Compound I-88]
10000 to 100000 | > 10000 | 10000 to 100000 | > 10000 | – | – | Cn1c(-c2cc3cccnc3n2CC2CC2)nc2cc(C(=O)N3CC[C@@H]4CCN[C@@H]4C3)ccc21 [Compound I-18]
1000 to 10000 | 1000 to 5000 | 1000 to 10000 | 1000 to 5000 | – | – | COc1cc(C(=O)N2CC3CCC2C(N)C3)cc2nc(-c3cc4cccnc4n3CC3CC3)n(C)c12 (centres unmarked) [Compound I-129]
< 1000 | < 1000 | < 1000 | < 1000 | – | – | COc1cc(C(=O)N2C[C@H]3CC[C@@H]2[C@@H]3N)cc2nc(-c3cc4ccc(C)nc4n3CC3CC3)n(C)c12 [Compound I-198]
1000 to 10000 | 1000 to 5000 | 1000 to 10000 | 1000 to 5000 | – | – | COc1cc(C(=O)N2C[C@@H](N)C[C@H](F)C2)cc2nc(-c3cc4cccnc4n3CC3(C)CC3)n(C)c12 [Compound I-93, (3S,5S)-5-Fluoro-1-(7-methoxy-1-methyl-2-{1-[(1-methylcyclopropyl)methyl]-1H-pyrrolo[2,3-b]pyridin-2-yl}-1H-1,3-benzodiazole-5-carbonyl)piperidin-3-amine]
– | > 10000 | – | > 10000 | E/F | E/F | COc1cc(C(=O)N2C[C@H](N)CC[C@H]2CO)cc2nc(-c3cc4cccnc4n3CC3CC3)n(C)c12 (racemic) [Compound I-220, Rac-[(2R,5S)-5-amino-1-{2-[1-(cyclopropylmethyl)-1H-pyrrolo[2,3-b]pyridin-2-yl]-7-methoxy-1-methyl-1H-1,3-benzodiazole-5-carbonyl}piperidin-2-yl]methanol]
< 1000 | < 1000 | 1000 to 10000 | 1000 to 5000 | – | – | CCn1c(-c2cc3cccnc3n2CC2CC2)nc2cc(C(=O)N3CC[C@@H]4CCN[C@@H]4C3)cc(OC)c21 [Compound I-23]
< 1000 | < 1000 | < 1000 | < 1000 | – | – | CCn1c(-c2nc3cc(C(=O)N4C[C@H]5CC[C@@H]4[C@@H]5N)cc(OC)c3n2C)cc2ccc(OC)nc21 [Compound I-139]
< 1000 | < 1000 | < 1000 | < 1000 | – | – | COc1cc(C(=O)N2C[C@H](N)C[C@@H](F)C2)cc2nc(-c3cc4ccc(C(F)(F)F)nc4n3CC3CC3)n(C)c12 [Compound I-208]
< 1000 | < 1000 | < 1000 | < 1000 | – | – | COc1cc(C(=O)N2CCC[C@@H](N)C2)cc2nc(-c3cc4ccc(C(F)(F)F)nc4n3CC3CC3)n(C)c12 [Compound I-197]
< 1000 | < 1000 | < 1000 | < 1000 | – | – | COc1cc(C(=O)N2C[C@H]3CC[C@@H]2[C@@H]3N)cc2nc(-c3cc4cccnc4n3CC3CC3)n(C[C@H]3CCOC3)c12 [Compound I-231]
1000 to 10000 | 1000 to 5000 | 1000 to 10000 | 1000 to 5000 | – | – | Cn1c(-c2cc3cccnc3n2CC2CC2)nc2cc(C(=O)N3CC[C@H]4CCN[C@H]4C3)cc(OC(F)F)c21 (single isomer, unassigned) [Compound I-25, hydrochloride]
< 1000 | < 1000 | < 1000 | < 1000 | – | – | COc1ccc2cc(-c3nc4cc(C(=O)N5C[C@H]6CC[C@@H]5[C@@H]6N)cc(OC)c4n3C)n(CC3CC3)c2n1 [Compound I-188]
1000 to 10000 | < 1000 | 1000 to 10000 | 1000 to 5000 | – | – | COc1cc(C(=O)N2CCC[C@@H](N)C2)cc2nc(-c3cc4cccnc4n3[C@@H](C)C3CC3)n(C)c12 [Compound I-102, (3R)-1-(2-{1-[(1S)-1-cyclopropylethyl]-1H-pyrrolo[2,3-b]pyridin-2-yl}-7-methoxy-1-methyl-1H-1,3-benzodiazole-5-carbonyl)piperidin-3-amine]
10000 to 100000 | > 10000 | 10000 to 100000 | > 10000 | – | – | COc1cc(C(=O)N2CC[C@]3(CNCCC3(F)F)C2)cc2nc(-c3cc4cccnc4n3CC3CC3)n(C)c12 [Compound I-107]
10000 to 100000 | > 10000 | 10000 to 100000 | > 10000 | – | – | COc1cc(C(=O)N2CC(N)CC(C#N)C2)cc2nc(-c3cc4cccnc4n3CC3CC3)n(C)c12 (racemic) [Compound I-82, 5-Amino-1-{2-[1-(cyclopropylmethyl)-1H-pyrrolo[2,3-b]pyridin-2-yl]-7-methoxy-1-methyl-1H-1,3-benzodiazole-5-carbonyl}piperidine-3-carbonitrile]
10000 to 100000 | > 10000 | 10000 to 100000 | > 10000 | – | – | COc1cc(C(=O)N2C[C@H]3COC[C@@]3(CN)C2)cc2nc(-c3cc4cccnc4n3CC3CC3)n(C)c12 [Compound I-125]
< 1000 | < 1000 | < 1000 | < 1000 | – | – | COc1cc(C(=O)N2C[C@H](N)C[C@@H](F)C2)cc2nc(-c3cc4cccnc4n3CC3CC3)n(C[C@H]3C[C@@](C)(OC)C3)c12 [Compound I-209]
< 1000 | < 1000 | < 1000 | < 1000 | – | – | CCn1c(-c2nc3cc(C(=O)N4CC5CCC4C5N)cc(OC)c3n2C)cc2ccc(OC)nc21 (racemic) [Compound I-136]
1000 to 10000 | < 1000 | 10000 to 100000 | > 10000 | – | – | CC(=O)Nc1ccnc2c1cc(-c1nc3cc(C(=O)N4CCC[C@@H](N)C4)ccc3n1C)n2CC1CC1 [Compound I-69, N-(2-{5-[(3R)-3-Aminopiperidine-1-carbonyl]-1-methyl-1H-1,3-benzodiazol-2-yl}-1-(cyclopropylmethyl)-1H-pyrrolo[2,3-b]pyridin-4-yl)acetamide]

Source: patent publication US9963448B2, “Bicyclic inhibitors of PAD4” (Padlock Therapeutics, Inc., priority 2015, dated 2018)
